Test results as given in patent US20080063704A1, “Stable gabapentin compositions” (priority 2004, published 2008).

How the values were obtained:
Format in all cases: physicochemical
[1] = Pre-formulation excipient compatibility study: HPLC assay for related substances
Text: HPLC Assay for Related Substances
(§1) All the ingredients were passed through 20 mesh screen and blended together. The results of all the pre-formulation compatibility studies are given in Tables 25 to 39, including comparative results for the drug substance (Table 39) and UK reference product (Table 38) as controls.
(§2) Aim: To carry out preformulation excipient compatibility studies for Gabapentin capsules
(§3) Binary mixtures to be evaluated (with and without water as necessary):
(§4) 1. Drug and diluents (1:0.5)
(§5) 2. Drug and lubricants(1:0.1)
(§6) 3. Drug and solubilizer (1:0.001)
(§7) 4. Proposed formulation from the in vitro formulation trials to confirm the extent of interactions and identify suitably stable formulations.
Significant degradation is defined as
1. >0.5% w/w formation of lactam degradation product at conditions up to 40° C./75% RH.
2. Formation of other degradants at levels >0.1% w/w.
3. Greater relative instability of mixture or formulation to Gabapentin drug substance and Neurotonin capsules.
(§8) Where humidity controls are not available a defined amount of water may be added to the samples. Storage of samples was in petridishes and in stoppered glass vials.
(§9) The following tests were performed at 14 and 28 day intervals.
3. HPLC assay for related substances

[2] = Pre-formulation excipient compatibility study: Appearance
Text: as §1, §2, §3, §4, §5, §6, §7, §8
(§10) The following tests were performed at each interval:
as §9

[3] = Pre-formulation excipient compatibility study: HPLC assay
Text: as §1, §2, §3, §4, §5, §6, §7, §8, §10
2. HPLC assay (as for HPLC related substances assay but calibrated for gabapentin resolution rather than for related substances)

NCC1(CC(=O)O)CCCCC1 [Gabapentin]
Impurities a) Lactam content ([1]; 25° C./60% RH, 14 days): Nil
Impurities b) Single largest individual Impurities ([1]; 25° C./60% RH, 14 days): Nil
Impurities c) Total other Impurities ([1]; 25° C./60% RH, 14 days): Nil
Impurities d) Total Impurities ([1]; 25° C./60% RH, 14 days): Nil
Impurities a) Lactam content ([1]; 25° C./60% RH, 28 days): Nil
Impurities b) Single largest individual Impurities ([1]; 25° C./60% RH, 28 days): Nil
Impurities c) Total other Impurities ([1]; 25° C./60% RH, 28 days): Nil
Impurities d) Total Impurities ([1]; 25° C./60% RH, 28 days): Nil
Impurities a) Lactam content ([1]; 40° C./75% RH, 14 days): Nil
Impurities b) Single largest individual Impurities ([1]; 40° C./75% RH, 14 days): Nil
Impurities c) Total other Impurities ([1]; 40° C./75% RH, 14 days): Nil
Impurities d) Total Impurities ([1]; 40° C./75% RH, 14 days): Nil
Impurities a) Lactam content ([1]; 40° C./75% RH, 28 days): Nil
Impurities b) Single largest individual Impurities ([1]; 40° C./75% RH, 28 days): Nil
Impurities c) Total other Impurities ([1]; 40° C./75% RH, 28 days): Nil
Impurities d) Total Impurities ([1]; 40° C./75% RH, 28 days): Nil
Impurities a) Lactam content ([1]; 50° C., 14 days): 0.004%
Impurities b) Single largest individual Impurities ([1]; 50° C., 14 days): Nil
Impurities c) Total other Impurities ([1]; 50° C., 14 days): Nil
Impurities d) Total Impurities ([1]; 50° C., 14 days): Nil
Impurities a) Lactam content ([1]; 50° C., 28 days): 0.004%
Impurities b) Single largest individual Impurities ([1]; 50° C., 28 days): Nil
Impurities c) Total other Impurities ([1]; 50° C., 28 days): Nil
Impurities d) Total Impurities ([1]; 50° C., 28 days): Nil
Impurities a) Lactam content ([1]; Initial): Nil
Impurities b) Single largest individual Impurities ([1]; Initial): Nil
Impurities c) Total other Impurities ([1]; Initial): Nil
Impurities d) Total Impurities ([1]; Initial): Nil
Description ([2]; 25° C./60% RH, 3 days): White
Description ([2]; 25° C./60% RH, 7 days): White
Description ([2]; 25° C./60% RH, 14 days): White
Description ([2]; 25° C./60% RH, 28 days): White
Description ([2]; 40° C./75% RH, 3 days): White
Description ([2]; 40° C./75% RH, 7 days): White
Description ([2]; 40° C./75% RH, 14 days): White
Description ([2]; 40° C./75% RH, 28 days): White
Description ([2]; 50° C., 3 days): White
Description ([2]; 50° C., 7 days): White
Description ([2]; 50° C., 14 days): White
Description ([2]; 50° C., 28 days): White
Description ([2]; Initial): White
Assay ([3]; 25° C./60% RH, 7 days): 98.6%
Assay ([3]; 25° C./60% RH, 14 days): 98.6%
Assay ([3]; 25° C./60% RH, 28 days): 98.51%
Assay ([3]; 40° C./75% RH, 7 days): 98.53%
Assay ([3]; 40° C./75% RH, 14 days): 98.4%
Assay ([3]; 40° C./75% RH, 28 days): 97.79%
Assay ([3]; 50° C., 7 days): 98.5%
Assay ([3]; 50° C., 14 days): 98.5%
Assay ([3]; 50° C., 28 days): 98.1%
Assay ([3]; Initial): 99.4%
